Measured values reported in US9884849B2, “Fluorinated benzofuranyl-pyrimidine derivatives containing a sulfoximine group” (Bayer Pharma Aktiengesellschaft, priority 2014, dated 2018).
Like-named read-outs stand apart in the source and are kept apart here.

What was measured:
Caco-2 cells = assay: Proliferation assay Caco-2 (Method 3); assay type: cell-based, human; details: Caco-2, 4 days, crystal violet, read-out: Inhibition of Caco-2 cell proliferation IC50
Method: (§1) Cultivated tumour cells (HeLa, human cervical tumour cells, ATCC CCL-2; NCI-H460, human non-small cell lung carcinoma cells, ATCC HTB-177; A2780, human ovarian carcinoma cells, ECACC #93112519; DU 145, hormone-independent human prostate carcinoma cells, ATCC HTB-81; HeLa-MaTu-ADR, multidrug-resistant human cervical carcinoma cells, EPO-GmbH Berlin; Caco-2, human colorectal carcinoma cells, ATCC HTB-37; B16F10, mouse melanoma cells, ATCC CRL-6475) were plated at a density of 5,000 cells/well (DU145, HeLa-MaTu-ADR), 3,000 cells/well (NCI-H460, HeLa), 2,500 cells/well (A2780), 1,500 cells/well (Caco-2), or 1,000 cells/well (B16F10) in a 96-well multititer plate in 200 μL of their respective growth medium supplemented 10% fetal calf serum. After 24 hours, the cells of one plate (zero-point plate) were stained with crystal violet (see below), while the medium of the other plates was replaced by fresh culture medium (200 μl), to which the test substances were added in various concentrations (0 μM, as well as in the range of 0.001-10 μM; the final concentration of the solvent dimethyl sulfoxide was 0.5%). The cells were incubated for 4 days in the presence of test substances. Cell proliferation was determined by staining the cells with crystal violet: the cells were fixed by adding 20 μl/measuring point of an 11% glutaric aldehyde solution for 15 minutes at room temperature. After three washing cycles of the fixed cells with water, the plates were dried at room temperature. The cells were stained by adding 100 μl/measuring point of a 0.1% crystal violet solution (pH 3.0). After three washing cycles of the stained cells with water, the plates were dried at room temperature. The dye was dissolved by adding 100 μl/measuring point of a 10% acetic acid solution. The extinction was determined by photometry at a wavelength of 595 nm. The change of cell number, in percent, was calculated by normalization of the measured values to the extinction values of the zero-point plate (=0%) and the extinction of the untreated (0 μm) cells (=100%). The IC50 values (inhibitory concentration at 50% of maximal effect) were determined by means of a 4 parameter fit.

HeLa cells = assay: Proliferation assay HeLa (Method 3); assay type: cell-based, human; details: 4 days, crystal violet, read-out: Inhibition of HeLa cell proliferation IC50
Method: as §1

DU145 cells = assay: Proliferation assay DU145 (Method 3); assay type: cell-based, human; details: DU145, 4 days, crystal violet, read-out: Inhibition of DU145 cell proliferation IC50
Method: as §1

CDK2/CycE = target: T1, CDK2/CycE (Homo sapiens, UniProt P24941); assay: CDK2/CycE high ATP kinase assay (Method 2b, TR-FRET); assay type: biochemical; details: 2 mM ATP
T1 construct: GST; purchased ProQinase GmbH (Freiburg, Germany); host or cells: insect cells (Sf9)
Method: 2b. CDK2/CycE High ATP Kinase Assay:
CDK2/CycE-Inhibitory Activity of Compounds of the Present Invention at 2 mM Adenosine-Tri-Phosphate (ATP) was Quantified Employing the CDK2/CycE TR-FRET (TR-FRET=Time Resolved Fluorescence Energy Transfer) Assay as Described in the Following Paragraphs.
Recombinant fusion proteins of GST and human CDK2 and of GST and human CycE, expressed in insect cells (Sf9) and purified by Glutathion-Sepharose affinity chromatography, were purchase from ProQinase GmbH (Freiburg, Germany). As substrate for the kinase reaction biotinylated peptide biotin-Ttds-YISPLKSPYKISEG (C-terminus in amid form) was used which can be purchased e.g. form the company JERINI peptide technologies (Berlin, Germany).
For the assay 50 nl of a 100 fold concentrated solution of the test compound in DMSO was pipetted into a black low volume 384 well microtiter plate (Greiner Bio-One, Frickenhausen, Germany), 2 yl of a solution of CDK2/CycE in aqueous assay buffer [50 mM Tris/HCl pH 8.0, 10 mM MgCl2, 1.0 mM dithiothreitol, 0.1 mM sodium ortho-vanadate, 0.01% (v/v) Nonidet-P40 (Sigma)] were added and the mixture was incubated for 15 min at 22° C. to allow pre-binding of the test compounds to the enzyme before the start of the kinase reaction. […] The concentration of CDK2/CycE was adjusted depending of the activity of the enzyme lot and was chosen appropriate to have the assay in the linear range, typical concentrations were in the range of 15 ng/ml. The reaction was stopped by the addition of 5 yl of a solution of TR-FRET detection reagents (0.2 μM streptavidine-XL665 [Cisbio Bioassays, Codolet, France] and 1 nM anti-RB(pSer807/pSer811)-antibody from BD Pharmingen [#558389] and 1.2 nM LANCE EU-W1024 labeled anti-mouse IgG antibody [Perkin-Elmer, product no. AD0077, as an alternative a Terbium-cryptate-labeled anti-mouse IgG antibody from Cisbio Bioassays can be used]) in an aqueous EDTA-solution (100 mM EDTA, 0.2% (w/v) bovine serum albumin in 100 mM HEPES/NaOH pH 7.0).
The resulting mixture was incubated 1 h at 22° C. to allow the formation of complex between the phosphorylated biotinylated peptide and the detection reagents. Subsequently the amount of phosphorylated substrate was evaluated by measurement of the resonance energy transfer from the Eu-chelate to the streptavidine-XL. Therefore, the fluorescence emissions at 620 nm and 665 nm after excitation at 350 nm were measured in a TR-FRET reader, e.g. a Rubystar (BMG Labtechnologies, Offenburg, Germany) or a Viewlux (Perkin-Elmer). The ratio of the emissions at 665 nm and at […] was taken as the measure for the amount of phosphorylated substrate. The data were normalised (enzyme reaction without inhibitor=0% inhibition, all other assay components but no enzyme=100% inhibition).

Row | SMILES | IC50 (Caco-2 cells; Homo sapiens, Caco-2, 96 h) [nM] | IC50 (HeLa cells; Homo sapiens, 96 h) [nM] | IC50 (DU145 cells; Homo sapiens, DU-145, 96 h) [nM] | IC50 (CDK2/CycE) [nM] | IC50 (Caco-2 cells) [nM] | IC50 (HeLa cells) [nM] | IC50 (DU145 cells) [nM]
1 | CS(=O)(Cc1cccc(Nc2ncc(F)c(-c3ccc(F)c4ccoc34)n2)c1)=NC#N (racemic) [Example 1, (rac)-[(3-{[5-Fluoro-4-(4-fluoro-1-benzofuran-7-yl)pyrimidin-2-yl]amino}benzyl)(methyl)oxido-λ^6-sulfanylidene]cyanamide] | 110 | 104 | 112 | 560 | – | – | –
2 | CS(=N)(=O)Cc1cccc(Nc2ncc(F)c(-c3ccc(F)c4ccoc34)n2)c1 (racemic) [Example 4, (rac)-5-Fluoro-4-(4-fluoro-1-benzofuran-7-yl)-N-{3-[(S-methylsulfonimidoyl)-methyl]phenyl}-pyrimidin-2-amine] | 141 | 297 | 169 | 510 | – | – | –
3 | CS(=O)(Cc1cc(F)cc(Nc2ncc(F)c(-c3ccc(F)c4ccoc34)n2)c1)=NC#N (racemic) [Example 7, (rac)-[(3-Fluoro-5-{[5-fluoro-4-(4-fluoro-1-benzofuran-7-yl)pyrimidin-2-yl]amino}benzyl)(methyl)-oxido-λ^6-sulfanylidene]cyanamide] | 75 | 50 | 51 | 652 | – | – | –
4 | CS(=O)(Cc1cccc(Nc2ncc(F)c(-c3ccc(F)c4ccoc34)n2)c1)=NC#N (single isomer, unassigned) [Example 2, [(3-{[5-Fluoro-4-(4-fluoro-1-benzofuran-7-yl)pyrimidin-2-yl]amino}benzyl)(methyl)oxido-λ^6-sulfanylidene]cyanamide] | – | – | – | 353 | 87 | 100 | 54
5 | CS(=O)(Cc1cccc(Nc2ncc(F)c(-c3ccc(F)c4ccoc34)n2)c1)=NC#N (single isomer, unassigned) [Example 3, [(3-{[5-Fluoro-4-(4-fluoro-1-benzofuran-7-yl)pyrimidin-2-yl]amino}benzyl)(methyl)oxido-λ^6-sulfanylidene]cyanamide] | 144 | 109 | 105 | 475 | – | – | –
6 | CS(=N)(=O)Cc1cccc(Nc2ncc(F)c(-c3ccc(F)c4ccoc34)n2)c1 (single isomer, unassigned) [Example 5, 5-Fluoro-4-(4-fluoro-1-benzofuran-7-yl)-N-{3-[(S-methylsulfonimidoyl)-methyl]-phenyl}-pyrimidin-2-amine] | – | 177 | 186 | 802 | 230 | – | –
7 | CS(=N)(=O)Cc1cccc(Nc2ncc(F)c(-c3ccc(F)c4ccoc34)n2)c1 (single isomer, unassigned) [Example 6, 5-Fluoro-4-(4-fluoro-1-benzofuran-7-yl)-N-{3-[(S-methylsulfonimidoyl)-methyl]-phenyl}-pyrimidin-2-amine] | – | – | – | 1000 | 112 | 115 | 110
8 | CS(=O)(Cc1cc(F)cc(Nc2ncc(F)c(-c3ccc(F)c4ccoc34)n2)c1)=NC#N (single isomer, unassigned) [Example 8, [(3-Fluoro-5-{[5-fluoro-4-(4-fluoro-1-benzofuran-7-yl)pyrimidin-2-yl]amino}benzyl)(methyl)-oxido-λ^6-sulfanylidene]cyanamide] | 43 | – | 34 | 812 | – | 89 | –

Further lines, results first:

Row | IC50 (Caco-2 cells; Homo sapiens, Caco-2, 96 h) [nM] | IC50 (HeLa cells; Homo sapiens, 96 h) [nM] | IC50 (DU145 cells; Homo sapiens, DU-145, 96 h) [nM] | IC50 (CDK2/CycE) [nM] | IC50 (Caco-2 cells) [nM] | IC50 (HeLa cells) [nM] | IC50 (DU145 cells) [nM] | SMILES
9 | 104 | 97 | 72 | 1800 | – | – | – | CS(=N)(=O)Cc1cc(F)cc(Nc2ncc(F)c(-c3ccc(F)c4ccoc34)n2)c1 (racemic) [Example 10, (rac)-5-Fluoro-4-(4-fluoro-1-benzofuran-7-yl)-N-{3-fluoro-5-[(S-methylsulfonimidoyl)-methyl]-phenyl}-pyrimidin-2-amine]
10 | 40 | 40 | 86 | 1200 | – | – | – | Cc1cc(CS(C)(=O)=NC#N)cc(Nc2ncc(F)c(-c3ccc(F)c4ccoc34)n2)c1 (racemic) [Example 13, (rac)-[(3-{[5-Fluoro-4-(4-fluoro-1-benzofuran-7-yl)pyrimidin-2-yl]amino}-5-methylbenzyl)-(methyl)oxido-λ^6-sulfanylidene]cyanamide]
11 | 60 | 46 | 106 | 491 | – | – | – | Cc1cc(CS(C)(=N)=O)cc(Nc2ncc(F)c(-c3ccc(F)c4ccoc34)n2)c1 (racemic) [Example 16, (rac)-5-Fluoro-4-(4-fluoro-1-benzofuran-7-yl)-N-{3-methyl-5-[(S-methylsulfonimidoyl)-methyl]phenyl}pyrimidin-2-amine]
12 | 111 | 99 | 94 | 1460 | – | – | – | CS(=O)(Cc1cc(Nc2ncc(F)c(-c3ccc(F)c4ccoc34)n2)cc(S(F)(F)(F)(F)F)c1)=NC#N (racemic) [Example 17, (rac)-{[3-{[5-fluoro-4-(4-fluoro-1-benzofuran-7-yl)pyrimidin-2-yl]amino}-5-(pentafluoro-λ^6-sulfanyl)benzyl](methyl)oxido-λ^6-sulfanylidene}cyanamide]
13 | 152 | 101 | 141 | 1540 | – | – | – | CS(=N)(=O)Cc1cc(Nc2ncc(F)c(-c3ccc(F)c4ccoc34)n2)cc(S(F)(F)(F)(F)F)c1 (racemic) [Example 18, (rac)-5-Fluoro-4-(4-fluoro-1-benzofuran-7-yl)-N-{3-[(S-methylsulfonimidoyl)methyl]-5-(pentafluoro-λ^6-sulfanyl)phenyl}pyrimidin-2-amine]
14 | – | – | – | 2230 | 54 | 31 | 34 | CS(=O)(Cc1cc(F)cc(Nc2ncc(F)c(-c3ccc(F)c4ccoc34)n2)c1)=NC#N (single isomer, unassigned) [Example 9, [(3-Fluoro-5-{[5-fluoro-4-(4-fluoro-1-benzofuran-7-yl)pyrimidin-2-yl]amino}benzyl)(methyl)-oxido-λ^6-sulfanylidene]cyanamide]
